The values below are quoted from earlier work in publication PMC12649378, “Comparative Pharmacokinetics and Safety of a Micellar Chrysin–Quercetin–Rutin Formulation: A Randomized Crossover Trial” (Antioxidants, 2025).

Test in data set [1]: not given
This is another data set of the same source.

Counter-ions that a name gives are not always drawn.

With `O=c1cc(-c2ccccc2)oc2cc(OS(=O)(=O)O)cc(O)c12` [chrysin sulfate], under “in vivo”, the “circulating metabolite concentration exceeding parent chrysin concentrations” value is recorded as ~ 30 fold.
As for `O=c1cc(-c2ccccc2)oc2cc(O)cc(O)c12` [chrysin, 5,7-dihydroxyflavone], in data set [1], the aqueous solubility (commonly the concentration that dissolves in the medium under given conditions) was less than 1 µg/mL and the “weak acidity (pH)” value was “≈ 6.7”. For the same compound, the peak plasma levels (humans, 400 mg of unformulated chrysin) was 3 to 16 ng/mL.
